Laboratory results taken from ChEMBL document CHEMBL1833965, “A new N-methyl thymine derivative comprising a dihydroxyisobutenyl unit as ligand for thymidine kinase of herpes simplex virus type 1 (HSV-1 TK)” (Bioorg Med Chem Lett, 2011).
Calls of active or inactive are those of the source. No cut-off for these calls is given here.

Legend:
HeLa = experiment: Antiproliferative activity against human HeLa cells after 72 hrs by MTT assay; type: functional, cell-based
MCF7 = experiment: Antiproliferative activity against human MCF7 cells after 72 hrs by MTT assay; type: functional, cell-based; settings: MCF7, 72 h
HepG2 = experiment: Antiproliferative activity against human HepG2 cells after 72 hrs by MTT assay; type: functional, cell-based; settings: HepG2, 72 h
SW-620 = experiment: Antiproliferative activity against human SW620 cells after 72 hrs by MTT assay; type: functional, cell-based; settings: SW-620, 72 h
MIA PaCa-2 = experiment: Antiproliferative activity against human MIAPaCa2 cells after 72 hrs by MTT assay; type: functional, cell-based; settings: MIA PaCa-2, 72 h
WI-38 = experiment: Antiproliferative activity against human WI38 cells after 72 hrs by MTT assay; type: cell-based; settings: WI-38, 72 h
[1] = target: T1, Thymidine kinase (Human alphaherpesvirus 1) (UniProt Q9QNF7); experiment: Activity of HSV-1 GST-TK assessed as formation of compound-monophosphate by HPLC analysis
T1 sequence (whole entry): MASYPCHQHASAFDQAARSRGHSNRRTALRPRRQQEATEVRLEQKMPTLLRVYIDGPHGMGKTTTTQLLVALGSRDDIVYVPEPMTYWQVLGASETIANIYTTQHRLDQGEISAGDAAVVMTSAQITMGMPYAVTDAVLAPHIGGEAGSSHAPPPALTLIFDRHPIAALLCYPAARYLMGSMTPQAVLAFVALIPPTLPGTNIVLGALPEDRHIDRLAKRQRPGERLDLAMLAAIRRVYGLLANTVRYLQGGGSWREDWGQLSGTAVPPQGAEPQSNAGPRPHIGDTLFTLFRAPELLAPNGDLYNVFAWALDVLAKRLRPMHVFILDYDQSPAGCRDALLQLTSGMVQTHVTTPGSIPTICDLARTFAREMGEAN

[2] = target: T1, Thymidine kinase (Human alphaherpesvirus 1); experiment: Activity of HSV-1 GST-TK assessed as formation of ADP by HPLC analysis
[3] = target: T2, Thymidine kinase, cytosolic (Homo sapiens) (UniProt P04183); experiment: Activity of human 6xHis-tagged TK assessed as formation of compound-monophosphate by HPLC analysis
T2 sequence (whole entry): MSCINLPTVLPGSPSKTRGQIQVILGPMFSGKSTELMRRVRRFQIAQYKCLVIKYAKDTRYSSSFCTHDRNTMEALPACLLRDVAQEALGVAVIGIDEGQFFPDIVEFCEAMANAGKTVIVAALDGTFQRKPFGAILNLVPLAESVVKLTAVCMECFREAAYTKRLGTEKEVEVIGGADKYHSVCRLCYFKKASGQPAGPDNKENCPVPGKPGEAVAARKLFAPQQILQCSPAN

[4] = target: T2, Thymidine kinase, cytosolic (Homo sapiens); experiment: Activity of human 6xHis-tagged TK assessed as formation of ADP by HPLC analysis
[5] = target: T1, Thymidine kinase (Human alphaherpesvirus 1); experiment: Activity of HSV-1 GST-TK assessed as increase in ADP to ATP ratio at 1 mM after 30 mins
[6] = target: T2, Thymidine kinase, cytosolic (Homo sapiens); experiment: Activity of human 6xHis-tagged TK assessed as effect on ADP to ATP ratio at 1 mM after 30 mins

Compound: COc1nc(CC(F)(COC(C)=O)COC(C)=O)c(C)c(OC)n1
- IC50 (HeLa): > 100 µM
- IC50 (MCF7): > 100 µM
- IC50 (HepG2): > 100 µM
- IC50 (SW-620): > 100 µM
- IC50 (MIA PaCa-2): > 100 µM
- IC50 (WI-38): > 100 µM

Compound: Cc1c(C=C(CO)CO)n(C)c(=O)[nH]c1=O
- Activity [1]: Active
- Activity [2]: Active
- Activity [3]: inactive
- Activity [4]: inactive
- Activity [5]: Active
- Activity [6]: inactive
- IC50 (HeLa): > 100 µM
- IC50 (MCF7): > 100 µM
- IC50 (HepG2): > 100 µM
- IC50 (SW-620): > 100 µM
- IC50 (MIA PaCa-2): > 100 µM
- IC50 (WI-38): > 100 µM

Compound: Cc1c(CC(O)(CO)CO)n(C)c(=O)[nH]c1=O
- IC50 (HeLa): > 100 µM
- IC50 (MCF7): > 100 µM
- IC50 (HepG2): > 100 µM
- IC50 (SW-620): > 100 µM
- IC50 (MIA PaCa-2): > 100 µM
- IC50 (WI-38): > 100 µM

Compound: CC(=O)OCC(=Cc1c(C)c(=O)[nH]c(=O)n1C)COC(C)=O
- IC50 (HeLa): > 100 µM
- IC50 (MCF7): > 100 µM
- IC50 (HepG2): > 100 µM
- IC50 (SW-620): > 100 µM
- IC50 (MIA PaCa-2): > 100 µM
- IC50 (WI-38): > 100 µM

Compound: COc1nc(=O)n(C)c(CC(O)(CO)CO)c1C
- IC50 (HeLa): > 100 µM
- IC50 (MCF7): > 100 µM
- IC50 (HepG2): > 100 µM
- IC50 (SW-620): > 100 µM
- IC50 (MIA PaCa-2): > 100 µM
- IC50 (WI-38): > 100 µM

Compound: COc1nc(=O)n(C)c(CC(O)(COCc2ccccc2)COCc2ccccc2)c1C
- IC50 (HeLa): 29.5 µM
- IC50 (MCF7): 23.7 µM
- IC50 (HepG2): 33.9 µM
- IC50 (SW-620): 57.2 µM
- IC50 (MIA PaCa-2): 33.5 µM
- IC50 (WI-38): 49.8 µM

Compound: COc1nc(=O)n(C)c(CC(O)(COC(C)=O)COC(C)=O)c1C
- IC50 (HeLa): > 100 µM
- IC50 (MCF7): > 100 µM
- IC50 (HepG2): > 100 µM
- IC50 (SW-620): > 100 µM
- IC50 (MIA PaCa-2): > 100 µM
- IC50 (WI-38): > 100 µM

Compound: COc1nc(CC(O)(COCc2ccccc2)COCc2ccccc2)c(C)c(OC)n1
- IC50 (HeLa): 3.67 µM
- IC50 (MCF7): 4.22 µM
- IC50 (HepG2): 2.42 µM
- IC50 (SW-620): 3.48 µM
- IC50 (MIA PaCa-2): 6.08 µM
- IC50 (WI-38): 3.84 µM

Compound: CC(=O)OCC(O)(COC(C)=O)Cc1c(C)c(=O)[nH]c(=O)n1C
- IC50 (HeLa): > 100 µM
- IC50 (MCF7): > 100 µM
- IC50 (HepG2): > 100 µM
- IC50 (SW-620): > 100 µM
- IC50 (MIA PaCa-2): > 100 µM
- IC50 (WI-38): > 100 µM

Compound: COc1nc(CC(O)(COC(C)=O)COC(C)=O)c(C)c(OC)n1
- IC50 (HeLa): > 100 µM
- IC50 (MCF7): > 100 µM
- IC50 (HepG2): > 100 µM
- IC50 (SW-620): > 100 µM
- IC50 (MIA PaCa-2): > 100 µM
- IC50 (WI-38): > 100 µM

Compound: CC(=O)OCC(F)(COC(C)=O)Cc1c(C)c(=O)[nH]c(=O)n1C
- IC50 (HeLa): > 100 µM
- IC50 (MCF7): > 100 µM
- IC50 (HepG2): > 100 µM
- IC50 (SW-620): > 100 µM
- IC50 (MIA PaCa-2): > 100 µM
- IC50 (WI-38): > 100 µM

Compound: COc1nc(=O)n(C)c(CC(F)(COC(C)=O)COC(C)=O)c1C
- IC50 (HeLa): > 100 µM
- IC50 (MCF7): > 100 µM
- IC50 (HepG2): > 100 µM
- IC50 (SW-620): > 100 µM
- IC50 (MIA PaCa-2): > 100 µM
- IC50 (WI-38): > 100 µM

Compound: COc1nc(CC(O)(CO)CO)c(C)c(OC)n1
- IC50 (HeLa): > 100 µM
- IC50 (MCF7): > 100 µM
- IC50 (HepG2): > 100 µM
- IC50 (SW-620): > 100 µM
- IC50 (MIA PaCa-2): > 100 µM
- IC50 (WI-38): > 100 µM
